Measured values taken from patent publication US20260124244A1, “MEGAKARYOCYTE DERIVATIVES FOR TREATMENT OF DRY EYE DISEASES” (Stellular Bio, Inc., priority 2023, published 2026).

Columns and labels:
[1] = system: human corneal epithelial (HCE-T) cells; assay: HCE-T cell proliferation, xCELLigence RTCA cell index; type: cell-based; details: 72-hour time course; EGF 30.4 pg/ml to 31.2 ng/ml; MLC lysates 0.025-0.75% (v/v) (high speed centrifugation) or 0.22 μm filtered
Protocol: Effect of MLC lysate on proliferation of human corneal epithelial (HCE-T) cells was measured. Briefly, HCE-T cells were plated on to E-Plate 96 (Agilent Technologies, Santa Clara, CA) at 2,500 cells per well in minimal KGM-Gold medium (Lonza, Walkersville, MD). Minimal KGM-Gold medium contains all KGM-Gold BulletKit components except for EGF (positive control), MLC lysates, and/or bovine pituitary extract. For negative control vehicle only, phosphate buffer solution (PBS) was used. After 24 hours, cells were treated with indicated concentrations of MLC lysates, EGF (SinoBiological Inc., Beijing, China) or PBS. The E-plate was then returned to the xCELLigence RTCA instrument for data collection for an additional 48 hours. Area under the curve (AUC) of normalized Cell Index was calculated using RTCA Software Pro and then normalized to vehicle. FIG. 10A illustrates results of a 72-hour time course study of effects of EGF on proliferation of HCE-T cells at a concentration ranging from 30.4 pg/ml to 31.2 ng/ml. FIG. 10B is an alternate representation of FIG. 10A showing normalized area under curved of normalized cell index for each concentration. […] FIG. 11A illustrates results of a 72-hour time course study of effects of MLC Lysates processed with high speed centrifugation on the proliferation of HCE-T cells at a dose ranging from 0.025% (v/v) to 0.75% (v/v). […]

[2] = system: rat medial meniscal tear (MMT) model of osteoarthritis (OA); assay: Dynamic weight bearing test in rat MMT osteoarthritis model; type: in vivo; details: intraarticular injection on days 7, 14 and 21 after surgery; tested days 7-28
Protocol: (§1) In vivo effect of MLC lysate and PLC in a subject having osteoarthritis was measured. A rat medial meniscal tear (MMT) model of osteoarthritis (OA) was used in an in vivo study for testing efficacy of megakaryocyte derivatives. […] As described in FIG. 13A, Lewis rats were subjected to meniscal tear surgery on day 0. Dynamic weight bearing and electronic Von Frey Filament analyses were conducted at 7, 14, 21 and 28 days following surgery. Subjects were administered with MLC lysates or PLCs by intraarticular injection after DWB and EVFF analysis on days 7, 14 and 21 following surgery. On day 28 following surgery, serum was collected, and animals were sacrificed to allow for joint histology. PRP and recombinant human FGF-18 were used as positive controls. For negative control vehicle only was used. In sum, the study comprised the following groups: No surgery (n=5), MMT Surgery+Vehicle (n=15), MMT Surgery+Platelet-like cells (n=15), MMT Surgery+Platelet-rich plasma (n=15), MMT Surgery+rFGF-18 (n=15), and MMT Surgery+MLC Lysate (n=15).
(§2) FIGS. 13B and 13C illustrate efficacy results of MLC lysate and PLC in the rat medial meniscal tear model of osteoarthritis using dynamic weight bearing test and electronic Von Frey Filament test, respectively.

[3] = system: rat medial meniscal tear (MMT) model of osteoarthritis (OA); assay: Electronic Von Frey Filament test in rat MMT osteoarthritis model; type: in vivo; details: intraarticular injection on days 7, 14 and 21 after surgery; compared to vehicle
Protocol: as §1, §2

[4] = system: rat medial meniscal tear (MMT) model of osteoarthritis (OA); assay: Joint histology in rat MMT osteoarthritis model; type: in vivo; details: day 28 after surgery
Protocol: as §1
As outlined in FIG. 13A, a histological analysis of test subjects was performed 28 days following the surgery. […] Additionally, synovitis score wad medial tibial osteophyte measurement was performed based on analysis of histological data.

## EGF: EGF (SinoBiological Inc.) used as positive control for HCE-T proliferation (NSDSECPLSHDGYCLHDGVCMYIEALDKYACNCVVGYIGERCQYRDLKWWELR; Epidermal growth factor; UniProt P01133 971-1023, looked up)
[1]
  proliferation of HCE-T cells (AUC of normalized Cell Index, normalized to vehicle): promotes corneal epithelial cell proliferation in a dose-dependent manner

## recombinant human FGF-18: recombinant human FGF-18 used as positive control in the rat MMT model
[2]
  pain profile in dynamic weight bearing testing: progressive increasing signal over time
[3]
  electronic von Frey filament thresholds: significant decrease in thresholds
[4]
  medial tibial osteophyte measurement compared to vehicle: resulted in a significant increase
  substantial cartilage degeneration width compared to vehicle: significant reduction compared to vehicle treatment
  synovitis score compared to vehicle: significant increase in synovitis score
